Assay results reported in US5801174A, “Fused indole and quinoxaline derivatives, their preparation and use” (Neurosearch A/S, priority 1994, dated 1998).

Assays:
[1] = system: AMPA-induced clonic seizures in NMRI mice; assay: AMPA-induced clonic seizures; format: in vivo; conditions: Mus musculus; i.v. 5 min (or p.o. 30 min) before 0.3 μg icv AMPA, 10 female NMRI mice per dose; route of the value not given; read-out: ED50 (dose inhibiting 50% of the mice from having clonic seizures)
Procedure: The compound, 8-methyl-5-(4(N,N-dimethylsulphamoyl)-phenyl)-6,7,8,9-tetrahydro-1H-pyrrolo[3,2-h]isoquinoline-2,3-dione-3-oxime has also been tested for its ability to inhibit the clonic seizures induced by AMPA in the following test:
In Vivo activity (AMPA-induced clonic seizures)
AMPA given icv (intracerebroventricular) (15 μg/kg) to NMRI mice induces clonic seizures which should be inhibited by non-NMDA receptor antagonists. Method: Test compound was given i.v. 5 min (or p.o. 30 min) before a 0.3 μg icv administration of AMPA to 10 female NMRI mice (weighing 24-26 g) per dose. The number of mice experiencing clonic seizures within the next 5 min was noted. An ED50 value was calculated as the dose inhibiting 50% of the mice from having clonic seizures.

[2] = system: gerbil hippocampus CA1-layer, global ischaemia; assay: Transient Forebrain Ischemia Model (2-VO Gerbils); format: in vivo; conditions: 30 mg/kg i.p. 30, 60 and 90 min post occlusion (total 90 mg/kg); ischaemic score 4 days later; Mann-Whitney test
Procedure: The compound, 8-methyl-5-(4-(N,N-dimethylsulphamoyl)-phenyl)-6,7,8,9-tetrahydro-1H-pyrrolo[3,2-h]isoquinoline-2,3-dione-3-oxime has also been tested in the following animal model of global ischaemia:
Transient Forebrain Ischemia Model (2-VO Gerbils)
Gerbils were anaesthetized with halothane, right and left carotid arteries located and occluded for 4 minutes. Animals were kept warm before and after the operation using heating lamps. During the operation the gerbils were placed on heating plates, body temperature controlled and maintained at 37°±0.5° C. Postocclusion, the gerbils were divided in two groups. One group received 30 mg/kg test compound i.p. 30, 60, and 90 min post occlusion (total dose was 90 mg/kg). The control group received 5.5% glucose i.p. at the same time intervals. Four days later, the animals were sacrificed, brains removed and cooled to -70° C. Thereafter, the brains were sectioned in […] thick sections of which 5-7 with hippocampal tissue were selected and stained with hematoxylin eosine (HE).
Based upon the degree of hippocampal damage, each hippocampus was categorised into one of four groups (Group 1: no damage in the CA1-layer; Group 2: the CA1-layer partly damaged; Group 3: the CA1-layer completely damaged; and Group 4: damage in more than just the CA1-layer). […]

AMPA receptor = AMPA receptor binding affinity (in vitro); conditions: Table 1
Text: In Vitro activity (receptor affinity):
(§1) The test results obtained by testing the compounds of the invention for their in-vitro AMPA receptor affinity and their ability to inhibit GABA release are presented in the following table: […]

[3] = system: cultured cerebral cortex neurons; assay: 3H-GABA release, cultured cerebral cortex neurons; format: cell-based; conditions: Cerebral cortex neuron; inhibition of stimulated 3H-GABA release, mouse cortical neurons, Table 1
Text: The compounds of the invention have also been tested for their ability to inhibit GABA release from cultured cerebral cortex neurons in the following test:
^3 H-GABA Release, Cortical Neurons
Background: Neurons which express receptors for excitatory amino acids can be depolarized by such compounds and this depolarization will ultimately lead to a release of transmitter substance from the neurons. Cultured neurons obtained from 15-day-old mouse embryo cortex are mainly GABAergic and express all types of excitatory amino acid receptors. This means that they can be stimulated by high potassium or by the excitatory amino acids, NMDA, AMPA and kainate to release their neurotransmitter GABA.
^3 H-GABA may be used to label the GABA transmitter pool in the neurons and the release of ^3 H-GABA from the neurons may be used as a simple functional model for studies of the effects of excitatory amino acids and their antagonists.
Method: Cerebral cortices of 16-day-old mouse embryos are chopped in 0.4×0.4 mm cubes. The tissue is dissociated by mild trypsinization (0.1% (wt/vol) trypsin, 37° C., 15 min) and subsequently inoculated into poly-L-lysine-coated 3-cm Petri dishes containing a slightly modified DMEM (24.5 mM KCI, 30 mM glucose) supplemented with p-aminobenzoate (7 μM), insulin (100 mU/L) and 10% (vol/vol) horse serum. Cells are maintained in culture for 5-7 days with the addition of the antimitotic agent cytosine arbinoside (40 μM) from day 2 in vitro to prevent glial profileration. For further details and references, see Drejer et al. Exp. Brain Res. 47, 259 (1982).
Release experiments are performed using the model described by Drejer et al. Life Sci. 38, 2077 (1986). Cerebral cortex neurons cultured in Petri dishes (30 mm) are added 100 μM γ-vinyl-GABA one hour before the experiment in order to inhibit degradation of GABA in the neurons. 30 min before the experiment 5 μCi ^3 H-GABA is added to each culture and after this preloading period the cell monolayer at the bottom of the dish is covered with a piece of nylon mesh to protect the cells against mechanical damage and to facilitate dispersion of medium over the cell layer. The preloading medium is removed and the Petri dishes are placed in a superfusion system consisting of a peristaltic pump continously delivering thermostated 37° C. superfusion medium HEPES buffered saline (HBS): 10 mM HEPES, 135 mM NaCl, 5 mM KCI, 0.6 mM MgSO4, 1.0 mM CaCl2 and 6 mM D-glucose; pH 7.4) from a reservoir to the top of the slightly tilted Petri dish. The medium is continously collected from the lower part of the dish and delivered to a fraction collector. Initially, the cells are superfused with HBS for 15 min (flow rate 2 ml/min). Then the cells are stimulated for 30 sec every 4 min by changing the superfusion medium from HBS to a corresponding medium containing […].
Test subtances are dissolved in 50% DMSO, 48% ethanol. The final DMSO and ethanol concentration in the assay must not exceed 0.1%.
The stimulated release of ^3 H-GABA (cpm) are corrected for the mean basal release(cpm) before and after stimulation.
The stimulated release in the presence of antagonists are expressed relative to the stimulated release and the IC50 value for the antagonist is calculated (the concentration (μM) of the test substance which inhibit 50% of the stimulated ^3 H-GABA release).
as §1

IC50 (AMPA receptor): 20 nM
IC50 [3]: 120 nM
Compound: CN1CCc2c(-c3ccc(S(=O)(=O)N(C)C)cc3)cc3c(c2C1)NC(=O)C3=NO [8-methyl-5-(4-(N,N-dimethylsulphamoyl)-phenyl)-6,7,8,9-tetrahydro-1H-pyrrolo[3,2-h]-isoquinoline-2,3-dione-3-oxime]
ED50 [1]: 3 mg/kg
neuroprotective effect in the gerbil 2-VO model [2]: significant neuroprotective effect
